From US20230365563A1, “QUINAZOLINE COMPOUND AND APPLICATION THEREOF” (SHANGHAI PHARMACEUTICALS HOLDING CO., LTD., priority 2020, published 2023) come the findings set out here.

The term IC50 denotes the concentration that inhibits the measured activity by half.

Counter-ions that a name gives are not always drawn.

One test has as its target T1, KRAS_G12D and cRAF (Homo sapiens, UniProt P01116, G12D).
T1 construct: purchased
Description: Inhibition of KRAS_G12D/cRAF binding (Cisbio binding kit, 665/615 ratio), Effect Embodiment B. The note with it: read-out: GTP-KRAS-G12D:CRAF IC50. In a few lines:
(§1)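 Compounds are tested over eleven threefold dilution steps in duplicate, with final DMSO at 1%.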

For another test, the target named is T2, KRAS_WT and SOS1 (Homo sapiens, UniProt P01116).
T2 construct: purchased
Description: Inhibition of KRAS_WT/SOS1 binding (Cisbio binding kit, 665/615 ratio), Effect Embodiment C. The note with it: read-out: GTP-KRAS-WT:SOS1 IC50. The method in brief:
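Compounds tested as 3-fold, 11-point dilutions in duplicate at 1% DMSO final against the KRAS_WT/SOS1 binding system. IC50 derived by nonlinear regression fit.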

The target in another test is T3, KRAS-G12D and SOS1 (Homo sapiens, UniProt P01116, G12D).
T3 construct: purchased
Kind of test: Inhibition of KRAS-G12D/SOS1 binding (Cisbio binding kit, 665/615 ratio), Effect Embodiment A. The note with it: read-out: GTP-KRAS-G12D:SOS1 IC50. In a few lines:
as §1

T2 sequence (P01116 1-188 isoform P01116-2): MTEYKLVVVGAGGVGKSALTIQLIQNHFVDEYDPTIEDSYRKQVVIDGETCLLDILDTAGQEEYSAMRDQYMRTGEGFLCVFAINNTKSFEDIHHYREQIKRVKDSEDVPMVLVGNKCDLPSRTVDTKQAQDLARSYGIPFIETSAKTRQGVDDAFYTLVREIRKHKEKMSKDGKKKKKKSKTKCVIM
T3 sequence (P01116 1-188 isoform P01116-2 G12D): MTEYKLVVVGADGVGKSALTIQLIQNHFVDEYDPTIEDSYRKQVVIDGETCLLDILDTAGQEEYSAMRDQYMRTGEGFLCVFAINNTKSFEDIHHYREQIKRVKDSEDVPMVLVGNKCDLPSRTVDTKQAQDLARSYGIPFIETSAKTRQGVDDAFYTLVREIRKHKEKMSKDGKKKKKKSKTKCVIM
T1 sequence (P01116 1-188 isoform P01116-2 G12D): as above

Turning to `C#Cc1cccc2cc(O)cc(-c3c(F)cc4c(N5CC6CCC(C5)N6)nc(OCCCN5C6CCC5COC6)nc4c3F)c12` (single isomer, unassigned) [Compound 273a, 4-((7S or 7R)-2-(3-(3-oxa-8-azabicyclo[3.2.1]octan-8-yl)propoxy)-4-((1R,5S)-3,8-diazabicyclo[3.2.1]octan-3-yl)-6,8-difluoroquinazolin-7-yl)-5-ethynylnaphthalen-2-ol diformate], the concentration for half-maximal inhibition (IC50) is 7.91 nM on KRAS_G12D and cRAF; 69.8 nM at KRAS_WT and SOS1; 11.3 nM at KRAS-G12D and SOS1.

As to `Oc1cc(-c2c(Cl)cc3c(N4CC5CCC(C4)N5)nc(OCCN4CCCC(F)C4)nc3c2F)c2ccccc2c1` (single isomer, unassigned) [Compound 267a, 4-((R or S)-4-((1R,5S)-3,8-diazacyclo[3.2.1]octan-3-yl)-6-chloro-8-fluoro-2-(2-((S or R)-3-fluoropiperidin-1-yl)ethoxy)quinazolin-7-yl)naphthalen-2-ol formate], the IC50 at KRAS_G12D and cRAF came out at 259 nM; on KRAS_WT and SOS1 it was 6340 nM; on KRAS-G12D and SOS1 it was 76.7 nM.

For `C[C@@H]1CN(CCCOc2nc(N3CC4CCC(C3)N4)c3cc(Cl)c(-c4cc(O)cc5ccccc45)c(F)c3n2)C[C@H](C)O1` (single isomer, unassigned) [Compound 125, 4-((S or R)-4-((1R,5S)-3,8-diazacyclo[3.2.1]octan-3-yl)-6-chloro-2-(3-((2S,6R)-2,6-dimethylmorpholine)propoxy)-8-fluoroquinolin-7-yl)naphthalen-2-ol hydrochloride], the IC50 on KRAS_G12D and cRAF was 170 nM; at KRAS_WT and SOS1, 1680 nM; at KRAS-G12D and SOS1, 52.7 nM.

As to `CN(C)C1CN(c2nc(N3CC4CC(C3)N4)c3cc(Cl)c(-c4cc(O)cc5ccccc45)c(F)c3n2)C1` (single isomer, unassigned) [Compound 25, 4-((7S or 7R)-4-(3,6-diazabicyclo[3.1.1]heptan-3-yl)-6-chloro-2-(3-(dimethylamino)azetidin-1-yl)-8-fluoroquinazolin-7-yl)naphthalen-2-ol], the concentration for half-maximal inhibition (IC50) was 4380 nM at KRAS_G12D and cRAF; 2550 nM at KRAS_WT and SOS1; 294 nM on KRAS-G12D and SOS1.

Turning to `CN1C[C@@H](F)C[C@H]1COc1nc(N2CC3CCC(C2)N3)c2cnc(-c3cc(O)cc4ccccc34)c(F)c2n1` [Compound 129, 4-(4-((1R,5S)-3,8-diazabicyclo[3.2.1]octan-3-yl)-8-fluoro-2-((2S,4S)-4-fluoro-1-methylpyrrolidin-2-yl)methoxy)pyridinyl[4.3-d]pyrimidin-7-yl)naphthalen-2-ol ditrifluoroacetate], the IC50 was determined as 180 nM at KRAS_G12D and cRAF; 2270 nM on KRAS_WT and SOS1; 42 nM on KRAS-G12D and SOS1.

Regarding `CN1CC(C)(C)C[C@H]1COc1nc(N2CC3CCC(C2)N3)c2cnc(-c3cc(O)cc4ccccc34)c(F)c2n1` [Compound 139, 4-(4-((1R,5S)-3,8-diazabicyclo[3.2.1]octan-3-yl)-8-fluoro-2-((S)-1,4,4-trimethylpyrrolidin-2-yl)methoxy)pyridinyl[4,3-d]pyrimidin-7-yl)naphthalen-2-ol diformate], the IC50 at KRAS_G12D and cRAF came to 129 nM; on KRAS_WT and SOS1, 1920 nM; on KRAS-G12D and SOS1, 37.2 nM.
